Assay results from publication PMC12439480, “Dimeric CCK2R radiotheranostic tracers synergize with mTOR inhibition for enhanced tumor therapy” (Theranostics, 2025).
Numbered stars: 1 amine (or outer) side, 2 acyl side, 3 side chain; on linkers, the order of the positions; unused ones are H or OH. Square brackets hold non-standard residues; d marks the D form. Side chains are listed from the residue outwards. Peptide text beside a SMILES is read from it. * marks the point of attachment. DOTA = O=C(O)CN1CCN(CC(=O)O)CCN(CC(=O)*)CCN(CC(=O)O)CC1; d(γGlu) = O=C(O)[C@@H](CCC(=O)[*:2])N[*:1]; 1Nal = N[C@@H](Cc1cccc2ccccc12)C(=O)O; NMeNle = CCCC[C@H](NC)C(=O)O; PEG4 = NCCOCCOCCOCCOCCC(=O)O

Parameters: species or system KM mice
Conditions: mouse, in vivo, iv
Procedure: To evaluate the clearance rates of [^68Ga]Ga-DOTA-CCK2R-dimer and [^68Ga]Ga-DOTA-CCK-66 from the blood, a pharmacokinetic study was conducted in male KM mice (4-6 weeks old, 18-20 g, n = 5/group). Each mouse received 3.7 MBq of radiotracer via tail vein injection, corresponding to approximately 120 pmol of [^68Ga]Ga-DOTA-CCK2R-dimer or 210 pmol of [^68Ga]Ga-DOTA-CCK-66. Blood samples were collected from the tail vein into preweighed capillary tubes at 1, 3, 5, 10, 15, 30, 60, 90, 120, and 150 min post-injection. The radioactivity of the blood samples was measured using a γ-counter, and the percent of injected dose per gram of tissue (%ID/g) was calculated. Additionally, we assessed the in vivo stability of [^177Lu]Lu-DOTA-CCK2R-dimer. Mice were intravenously injected with 7.4 MBq (≈ 240 pmol) of [^177Lu]Lu-DOTA-CCK2R-dimer (dissolved in 200 μL of saline; n = 3/group). Urine samples were collected at 1, 4, and 24 hours post-injection, then diluted, filtered through a 0.22 μm membrane, and analyzed by radio-HPLC.
All animal studies were approved by the Ethics Committee of Fudan University […]
Shanghai Cancer Center (No. FUSCC-IACUC- S2023- 0003). […]
Pharmacokinetics in Normal Mice
F or the pharmacokinetics study, […] male KM mice (4 - 6 weeks old, weighing 18 - 20 g) were administered either [68Ga]Ga-D O TA -CCK2R-dimer or [68Ga]Ga-D O TA -CCK- 66 (3.7 MBq per mouse, n = 5/group) via tail vein injection.
Blood samples were collected from the tail vein using pre-weighed capillary tubes at […]
Radioactivity levels were measured using a gamma counter, with decay correction applied based on the injection time. The percentage of injected dose per gram of tissue (%ID/g) was calculated for each time point. […]

t1/2α [min]	Compound	half-life [min]
0.67	CCCC[C@@H](C(=O)N[C@@H](CC(=O)O)C(=O)N[C@@H](Cc1cccc2ccccc12)C(N)=O)N(C)C(=O)[C@H](Cc1c[nH]c2ccccc12)NC(=O)CCOCCOCCOCCOCCNC(=O)CC[C@@H](NC(=O)CN1CCN(CC(=O)O)CCN(CC(=O)O)CCN(CC(=O)O)CC1)C(=O)O [[68Ga]Ga-DOTA-CCK-66, metal not drawn, reference compound] ({DOTA-d(γGlu)-PEG4}-W[NMeNle]D[1Nal]-NH2)	11.8
–	CCCC[C@@H](C(=O)N[C@@H](CC(=O)O)C(=O)N[C@@H](Cc1cccc2ccccc12)C(N)=O)N(C)C(=O)[C@H](Cc1c[nH]c2ccccc12)NC(=O)CCOCCOCCOCCOCCNC(=O)CC[C@@H](NC(=O)CC[C@H](NC(=O)CN1CCN(CC(=O)O)CCN(CC(=O)O)CCN(CC(=O)O)CC1)C(=O)N[C@H](CCC(=O)NCCOCCOCCOCCOCCC(=O)N[C@@H](Cc1c[nH]c2ccccc12)C(=O)N(C)[C@@H](CCCC)C(=O)N[C@@H](CC(=O)O)C(=O)N[C@@H](Cc1cccc2ccccc12)C(N)=O)C(=O)O)C(=O)O [[68Ga]Ga-DOTA-CCK2R-dimer, metal not drawn] ({DOTA}-E([d(γGlu)-PEG4-Trp-NMeNle-Asp-1Nal-NH2])[d(γGlu)][PEG4]W[NMeNle]D[1Nal]-NH2)	46.6
